What was measured:
pH-dependent solubility = assay type: physicochemical; conditions: pHs > 4
Text: For immediate release formulations, such pH-dependent properties may result in a reduction in bioavailability when dosed with acid reducing agents, such as, e.g., famotidine or omeprazole. […] While using the higher-energy, amorphous free base form of BMS-986165 helps address the above challenges, formulating amorphous BMS-986165 presents other challenges, including ensuring physical stability of the amorphous form during storage, and maintaining supersaturation of the compound during dissolution in the GI tract.

[1] = Chemical stability of BMS-986165:HPMCAS-H SDDs upon storage (related substances); assay type: physicochemical; conditions: API standard, no stability condition printed
Experimental: Lots of 25% w/w BMS-986165 SDD with HPMCAS-H were assessed for physical and chemical stability. […] Dissolution performance in the microcentrifuge test was unchanged.
There was no evidence of crystallization by PXRD in any SDD after storage for up to 6 months at 40° C./75%RH open (FIG. 1A and FIG. 1B). DSC data indicated slight changes similar to those observed in 25% w/w BMS-986165 SDD after exposure to 50° C./75%RH or 40° C./75%RH but there was no trend with API loading and the results were considered to reflect an “ageing” or “annealing” effect rather than crystal formation. Scanning electron microscopy (SEM) images confirmed the presence of a single phase homogenous dispersion (FIGS. 2A-C, FIGS. 3A-C, FIGS. 4A-C).

[2H]C([2H])([2H])NC(=O)c1nnc(NC(=O)C2CC2)cc1Nc1cccc(-c2ncn(C)n2)c1OC [BMS-986165 crystalline free base, 6-(cyclopropaneamido)-4-((2-methoxy-3-(1-methyl-1H-1,2,4-triazol-3-yl)phenyl)amino)-N-(methyl-d3)pyridazine-3-carboxamide]
solubility (pH-dependent solubility): low solubility

[2H]C([2H])([2H])NC(=O)c1nnc(NC(=O)C2CC2)cc1Nc1cccc(-c2ncn(C)n2)c1OC [BMS-986165, 6-(cyclopropaneamido)-4-((2-methoxy-3-(1-methyl-1H-1,2,4-triazol-3-yl)phenyl)amino)-N-(methyl-d3)pyridazine-3-carboxamide]
BMS-986165 (relative ret. time 1.00), related substances [1]: 99.48
Total imporities >LOQ [1]: 0.52%

Reference: patent US20230255964A1, “EXTENDED RELEASE DOSAGE FORMS FOR TYK2 INHIBITORS” (Bristol-Myers Squibb Company, priority 2019, published 2023)
